Tests used:
[1] = Test on stability in mediums in vitro (buffer solutions with different pH, simulated intestinal fluid, simulated gastric fluid); format: physicochemical
Method: At 37° C., Compound 17 was incubated in different mediums (buffer solutions with different pH, a simulated intestinal fluid containing pancreatin, and simulated gastric fluid containing pepsin).
(§1) Other typical example compounds were tested for stability according to the above method, and the test results are shown in Table 8 below.

colon flora = test: Stability in the presence of colon flora (content in colon of rat); format: in vitro ADME, SD rat
Method: A phosphate buffer solution with a pH of 7.0 was formulated, and then CO2 was introduced to the solution to adjust the pH to 6.8. Then, the content in colon of a male SD rat (body weight: 180-220 g) was placed in a water bath at 37° C., and added into the phosphate buffer solution with a pH of 6.8 as prepared above under the protection of N2 to a concentration of 20% (w/v). The buffer solution was kept in an oxygen-free environment. Then, the test Compound 17 was added to the buffer solution, and the solution was stirred uniformly.
Supernatant was analyzed with HPLC, where the amount of each ingredient was calculated by normalization.
Note: in the above table, “T14.148 (%)” represents the percentage of peak area of the material with a retention time of 14.148 min “T14.713 (%)” represents the percentage of peak area of the material with a retention time of 14.713 min. “T16.392 (%)” represents the percentage of peak area of the material with a retention time of 16.392 min. “T22.624 (%)” represents the percentage of peak area of the material with a retention time of 22.624 min.
as §1

[2] = Simulated intestinal fluid (containing pancreatin) (pH 6.8) (8 h)
[3] = male, Sprague-Dawley (SD), rat, 1 h, pH 6.8
[4] = Content in colon (pH 6.8) (1 h)

| SMILES | Percentage of the example compound remaining (Composition, %) [1, 2] [%] | Percentage of the released active drug (prednisolone, dexamethasone, budesonide, apremilast or prucalopride) (Composition, %) [1, 2] [%] | Percentage of the example compound remaining (Composition, %) ([1]; Water (pH 1.2) (2 h)) [%] | Percentage of the released active drug (prednisolone, dexamethasone, budesonide, apremilast or prucalopride) (Composition, %) ([1]; Water (pH 1.2) (2 h)) [%] | Percentage of the example compound remaining (Composition, %) (colon flora; [3]) [%] | Percentage of the released active drug (prednisolone, dexamethasone, budesonide, apremilast or prucalopride) (Composition, %) (colon flora; [3]) [%] | Percentage of the example compound remaining (Composition, %) (colon flora; [4]) [%] |
| --- | --- | --- | --- | --- | --- | --- | --- |
| C[C@@H]1C[C@H]2[C@@H]3CCC4=CC(=O)C=C[C@]4(C)[C@@]3(F)[C@@H](O)C[C@]2(C)[C@@]1(O)C(=O)COC1(CO)O[C@H](CO)[C@@H](O[C@@H]2O[C@H](CO)[C@H](O)[C@H](O)[C@H]2O)[C@@H]1O (stereo partly drawn) [Compound 4, (11β,16α)-9-fluoro-11,17-dihydroxyl-16-methyl-21-{[4-O-(β-D-galactopyranosyl)-D-fructofuranosyl]oxy}pregna-1,4-diene-3,20-dione] | 99.4 | 0 | 25.0 | 72.7 | 15.6 | 50.3 |  |
| CCCC1O[C@@H]2C[C@H]3[C@@H]4CCC5=CC(=O)C=C[C@]5(C)[C@H]4[C@@H](O)C[C@]3(C)[C@]2(C(=O)COC2(CO)O[C@H](CO)C(O[C@@H]3OC(CO)[C@H](O)C(O)C3O)C2O)O1 (stereo partly drawn) [Compound 7, (11β,16α)-11-hydroxyl-16,17-(butylidenedioxy)-21-{[4-O-(β-D-galactopyranosyl)-D-fructofuranosyl]oxy}pregna-1,4-diene-3,20-dione] | 98.9 | 0.1 | 20.0 | 61.6 | 27.2 | 45.9 |  |
| CCOc1cc([C@@H](CS(C)(=O)=O)N2C(=O)c3cccc(N(C(C)=O)C4(CO)O[C@H](CO)C(O[C@@H]5OC(CO)[C@H](O)C(O)C5O)C4O)c3C2=O)ccc1OC (stereo partly drawn) [Compound 12, N-{2-[(S)-1-(3-ethoxy-4-methoxyphenyl)-2-(methylsulfonyl)ethyl]-1,3-dioxo-2,3-dihydro-1H-isoindol-4-yl}-N′-[4-O-(β-D-galactopyranosyl)-D-fructofuranosyl]acetamide] | 100 | 0 | 20.0 | 79.8 |  |  | 30.1 |
| COCCCN1CCC(N(C(=O)c2cc(Cl)c(N)c3c2OCC3)C2(CO)O[C@H](CO)C(O[C@@H]3OC(CO)[C@H](O)C(O)C3O)C2O)CC1 (stereo partly drawn) [Compound 13, 4-amino-5-chloro-2,3-dihydro-N-[1-(3-methoxypropyl)-4-piperidinyl]-N′-[4-O-(β-D-galactopyranosyl)-D-fructofuranosyl]-7-benzofurancarboxamide] | 99.4 | 0 | 4.4 | 95.0 |  |  | 18.7 |
| COCCCN1CCC(NC(=O)c2cc(Cl)c(NC3(CO)O[C@H](CO)[C@@H](O[C@@H]4O[C@H](CO)[C@H](O)[C@H](O)[C@H]4O)[C@@H]3O)c3c2OCC3)CC1 (stereo partly drawn) [Compound 14, 5-chloro-2,3-dihydro-4-{[4-O-(β-D-galactopyranosyl)-D-fructofuranosyl]amino}-N-[1-(3-methoxypropyl)-4-piperidinyl]-7-benzofurancarboxamide] | 98.3 | 1.1 |  | 99.5 |  |  | 2.1 |

Source: patent publication US11491232B2, “Lactuloside compounds and preparation and use thereof” (Fruithy Holdings Limited, priority 2017, dated 2022)
